Like-named read-outs stand apart in the source and are kept apart here.
Columns and labels:
[1] = target: T1, Recombinant Human CHO Stromelysin (MMP-3) (Homo sapiens, UniProt P08254); assay: P218 quenched fluorescence (microfluorometric profiling) assay, MMP-3; assay type: biochemical
T1 construct: made in house; host or cells: CHO cells
From the text: P218 is a synthetic substrate containing a 4-acetyl-7-methoxycoumarin (MCA) group in the N-terminal position and a 3-[2, 4-dinitrophenyl]-L-2,3-diaminopropionyl (DPA) group internally.
The reaction was stopped by addition of soybean trypsin inhibitor (SBTI; 5:1 w/w to trypsin concentration). This activation protocol results in the formation of 45 kDa active MMP-3, which still contains the C-terminal portion of the enzyme.
Microfluorometric Reaction Buffer (MRB): Dilution of test compounds, enzymes, and P218 substrate for the microfluorometric assay were made in microfluorometric reaction buffer consisting of 50 mM 2-(N-morpholino)ethanesulfonic acid (MES) at pH 6.5 with 10 mM CaCl2, 150 mM NaCl, 0.005% Brij-35 and 1% DMSO.
MMP Microfluorometric Profiling Assay. The assay is done with a final substrate concentration of 6 μM P218 and approximately 0.5 to 0.8 nM MMP with variable drug concentrations. The Hamilton is programmed to serially dilute up to 11 compounds from a 2.5 mM stock (100% DMSO) to 10× the final compounds concentrations in the assay. Initially, the instrument delivers various amounts of microfluoromentric reaction buffer (MRB) to a 96 tube rack of 1 ml Marsh dilution tubes. The instrument then picks up 20 μl of inhibitor (2.5 mM) from the sample rack and mixes it with a buffer in row A of the Marsh rack, resulting in a 50 μM drug concentration. The inhibitors are then serially diluted to 10, 5, 1, 0.2, 0.05 and 0.01 μM. […] The instrument re-mixes and loads 14.5 μl of diluted compound from rows A to G in the Marsh rack to corresponding rows in the microtiter plate. (Row H represents the "background" row and 39.5 μl of MRB is delivered in placed of drug or enzyme). […] (The enzyme reservoir is pretreated with 1% BSA in 50 mM Tris, pH 7.5 containing 150 mM NaCl for 1 hour at room temp., followed by extensive H2 O washing and drying at room temp.).
IC50 and Ki Determination in Microfluorometric Assay: Data generated on the Cytofluor II is copied from an exported ".CSV" file to a master Excel spreadsheet. Data from several different MMPs (one 96 well plate per MMP) were calculated simultaneously. The percent inhibition is determination for each drug concentration by comparing the amount of hydrolysis (fluorescence units generated over 25 minutes of hydrolysis) of wells containing compound with the "enzyme only" wells in column 1.

[2] = target: T2, Human Recombinant Gelatinase A (MMP-2) (Homo sapiens, UniProt P08253); assay: P218 quenched fluorescence (microfluorometric profiling) assay, MMP-2; assay type: biochemical
T2 sequence (P08253 110-660): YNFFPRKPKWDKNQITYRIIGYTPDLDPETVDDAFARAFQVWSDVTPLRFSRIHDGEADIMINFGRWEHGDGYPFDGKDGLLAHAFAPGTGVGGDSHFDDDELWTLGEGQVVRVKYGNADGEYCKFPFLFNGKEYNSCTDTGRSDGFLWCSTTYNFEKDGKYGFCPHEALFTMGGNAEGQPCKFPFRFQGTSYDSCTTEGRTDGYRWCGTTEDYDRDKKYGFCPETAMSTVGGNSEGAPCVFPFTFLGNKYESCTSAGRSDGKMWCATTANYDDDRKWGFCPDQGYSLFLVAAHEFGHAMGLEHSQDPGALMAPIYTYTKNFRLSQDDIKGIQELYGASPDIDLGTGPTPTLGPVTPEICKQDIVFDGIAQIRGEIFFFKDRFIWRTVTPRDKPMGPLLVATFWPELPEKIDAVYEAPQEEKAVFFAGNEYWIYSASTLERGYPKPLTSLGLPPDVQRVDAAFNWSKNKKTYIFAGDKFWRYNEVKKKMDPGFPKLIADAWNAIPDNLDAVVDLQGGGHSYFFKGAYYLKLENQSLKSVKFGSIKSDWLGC

[3] = target: T3, Human Recombinant Gelatinase B (MMP-9) (Homo sapiens, UniProt P14780); assay: P218 quenched fluorescence (microfluorometric profiling) assay, MMP-9; assay type: biochemical
T3 construct: made in house
T3 sequence (P14780 107-707 limits assumed): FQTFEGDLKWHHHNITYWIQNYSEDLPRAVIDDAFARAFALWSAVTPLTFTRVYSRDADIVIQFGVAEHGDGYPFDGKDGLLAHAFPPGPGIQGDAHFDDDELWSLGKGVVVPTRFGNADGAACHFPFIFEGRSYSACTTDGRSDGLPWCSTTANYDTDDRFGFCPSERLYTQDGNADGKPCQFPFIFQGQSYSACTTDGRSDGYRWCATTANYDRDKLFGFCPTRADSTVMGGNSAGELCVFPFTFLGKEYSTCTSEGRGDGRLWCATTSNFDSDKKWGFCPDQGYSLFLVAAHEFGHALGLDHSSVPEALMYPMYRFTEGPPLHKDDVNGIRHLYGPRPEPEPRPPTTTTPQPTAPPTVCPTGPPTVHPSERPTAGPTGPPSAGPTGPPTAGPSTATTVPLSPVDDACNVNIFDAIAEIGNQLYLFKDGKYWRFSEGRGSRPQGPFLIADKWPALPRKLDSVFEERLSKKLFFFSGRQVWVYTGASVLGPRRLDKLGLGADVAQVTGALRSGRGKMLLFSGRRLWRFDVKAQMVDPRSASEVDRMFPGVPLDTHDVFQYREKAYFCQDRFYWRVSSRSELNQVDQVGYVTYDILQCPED
Experimental: The assay was run with each invention compound and the three MMPs, Mmp-3, MMP-9 and MMP-2, analyzed in parallel, adapted as follows for a 96-well microtiter plate and a Hamilton AT® workstation. […] P218 is currently being produced BACHEM exclusively for Bayer. P218 has the structure: […] The enzyme was dialyzed against the same buffer to remove the APMA. Hamiltion Microlab AT Plus: The MMP-Profiling Assay is performed robotically on a Hamilton MicroLab AT Plus®. The Hamilton is programmed to: (1) serially dilute up to 11 potential inhibitors automatically from a 2.5 mM stock in 100% DMSO; (2) distribute substrate followed by inhibitor into a 96 well Cytofluor plate; and (3) add a single enzyme to the plate with mixing to start the reaction. Subsequent plates for each additional enzyme are prepared automatically by beginning the program at the substrate addition point, remixing the diluted inhibitors and beginning the reaction by addition of enzyme. In this way, all MMP assays were done using the same inhibitor dilutions. Millipore Cytofluor II. […] MMP Microfluorometric Profiling Assay. […] The Hamilton is programmed to serially dilute up to 11 compounds from a 2.5 mM stock (100% DMSO) to 10× the final compounds concentrations in the assay. Initially, the instrument delivers various amounts of microfluoromentric reaction buffer (MRB) to a 96 tube rack of 1 ml Marsh dilution tubes. The instrument then picks up 20 μl of inhibitor (2.5 mM) from the sample rack and mixes it with a buffer in row A of the Marsh rack, resulting in a 50 μM drug concentration. The inhibitors are then serially diluted to 10, 5, 1, 0.2, 0.05 and 0.01 μM. […] The instrument re-mixes and loads 14.5 μl of diluted compound from rows A to G in the Marsh rack to corresponding rows in the microtiter plate. (Row H represents the "background" row and 39.5 μl of MRB is delivered in placed of drug or enzyme). […] After addition and mixing of the enzyme, the plate is covered and incubated for 25 min. at 37° C. Additional enzymes are tested in the same manner by beginning the Hamilton program with the distribution of P218 substrate to the microtiter plate, followed by re-mixing and distribution of the drug from the same Marsh rack to the microtiter plate. The second (or third, etc.) MMP to be tested is then distributed from a reagent rack to the microtiter plate with mixing, prior to covering and incubation. This is repeated for all additional MMP's to be tested. IC50 and Ki Determination in Microfluorometric Assay: Data generated on the Cytofluor II is copied from an exported ".CSV" file to a master Excel spreadsheet. […] The percent inhibition is determination for each drug concentration by comparing the amount of hydrolysis (fluorescence units generated over 25 minutes of hydrolysis) of wells containing compound with the "enzyme only" wells in column 1. Following subtraction of the background the percent inhibition was calculated as: ((Control values-Treated values)/Control values)×100 Percent inhibitions were determined for inhibitor concentrations of 5, 1, 0.5, 0.1, 0.02, 0.005 and, 0.001 μM of drug. Linear regression analysis of percent inhibition versus log inhibitor concentration was used to obtain IC50 values.

[4] = fenbufen analogs, Child, et al.; cited from earlier work
[5] = test system: human ovarian carcinoma xenografts; settings: batimastat given intraperitoneally; cited from earlier work
[6] = test system: human colon tumor; settings: intraperitoneally; orthotopic model in nude mice; cited from earlier work
[7] = P218 6 μM, pH 6.5, 25 min, 37° C., read-out: MMP-3 Ki
[8] = P218 6 μM, pH 6.5, 25 min, 37° C., read-out: MMP-2 Ki
[9] = P218 6 μM, pH 6.5, 25 min, 37° C., read-out: MMP-9 Ki

T1 sequence (P08254 100-477): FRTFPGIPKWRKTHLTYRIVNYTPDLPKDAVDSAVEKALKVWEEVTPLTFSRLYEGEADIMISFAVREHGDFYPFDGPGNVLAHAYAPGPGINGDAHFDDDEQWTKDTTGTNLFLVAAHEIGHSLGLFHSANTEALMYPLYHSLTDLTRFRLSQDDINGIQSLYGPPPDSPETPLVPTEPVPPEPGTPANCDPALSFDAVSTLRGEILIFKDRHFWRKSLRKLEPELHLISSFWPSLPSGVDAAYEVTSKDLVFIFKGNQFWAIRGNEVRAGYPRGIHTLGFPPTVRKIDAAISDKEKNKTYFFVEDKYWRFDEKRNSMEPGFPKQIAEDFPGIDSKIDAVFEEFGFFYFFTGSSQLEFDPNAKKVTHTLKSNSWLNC

Row | Structure (SMILES) | Ki [1, 7] [nM] | Ki [2, 8] [nM] | Ki [3, 9] [nM] | further results
1 | O=C(CC(CCc1ccccc1C(=O)NCCN1CCOCC1)C(=O)O)c1ccc(-c2ccc(Cl)cc2)cc1 (stereo not drawn) [Compound XXV, 4'-chloro-α-[2 [2-[[[2-(4-morpholinyl)ethyl]amino]carbonyl]phenyl]ethyl]-γ-oxo-[1,1'-biphenyl]-4-butanoic acid] | 371 | 51.4 | 744 | 
2 | O=C(O)CCNC(=O)c1cccc(CCC(CC(=O)c2ccc(-c3ccc(Cl)cc3)cc2)C(=O)O)c1 (stereo not drawn) [Compound XXVI, α-[2-[3-[[(2-carboxyethyl)amino]carbonyl]phenyl]ethyl]-4'-chloro-γ-oxo-[1,1'-biphenyl]-4-butanoic acid] | 178 | 76.6 | 706 | 
3 | O=C(CC(CCc1ccccc1C(=O)N1CCCCC1)C(=O)O)c1ccc(-c2ccc(OCc3ccccc3)cc2)cc1 (centres unmarked) [Compound XXXII] | 14.8 |  | 167 | Ki [2]: 13 nM
4 | O=C(CC(CCc1ccccc1C(=O)N1CCOCC1)C(=O)O)c1ccc(-c2ccc(Cl)cc2)cc1 (centres unmarked) [II] |  | 12.1 |  | Ki [1]: 122 nM; Ki [3]: 323 nM
5 | O=C(O)CC(C(=O)c1ccc(-c2ccccc2)cc1)c1ccccc1 (centres unmarked) [LXXVII] |  |  |  | activity as anti-inflammatory analgesic agents [4]: inactive
6 | CCOC(=O)CCNC(=O)c1ccccc1CCC(CC(=O)c1ccc(-c2ccc(Cl)cc2)cc1)C(=O)O (centres unmarked) [VII] |  |  |  | Ki [1]: 131 nM; Ki [2]: 27.1 nM; Ki [3]: 478 nM
7 | O=C(CC(CCc1cccc(C(=O)N2CCCCC2)c1)C(=O)O)c1ccc(-c2ccc(Cl)cc2)cc1 (stereo not drawn) [XI, 4'-chloro-γ-oxo-α-[2-[3-(1-piperidinylcarbonyl)phenyl]ethyl]-[1,1'-biphenyl]-4-butanoic acid] | 34.4 | 10.3 | 58.1 | 
8 | O=C(CC(C(=O)O)c1ccccc1)c1ccc(-c2ccccc2)cc1 (centres unmarked) [XLIX] |  |  |  | activity as anti-inflammatory analgesic agents [4]: inactive
9 | CC(CC(=O)c1ccc(-c2ccccc2)cc1)C(=O)O (centres unmarked) [XLVII] |  |  |  | activity as anti-inflammatory analgesic agents [4]: inactive
10 | O=C(CC(CCc1ccc(C(=O)N2CCOCC2)cc1)C(=O)O)c1ccc(-c2ccc(Cl)cc2)cc1 (stereo not drawn) [XVII, 4'-chloro-α-[2-[4-(4-morpholinylcarbonyl)phenyl]ethyl]-γ-oxo-[1,1'-biphenyl]-4-butanoic acid] |  | 53.6 |  | Ki [1]: 236 nM; Ki [3]: 606 nM
11 | O=C(CC(CCc1ccc(C(=O)NCCN2CCOCC2)cc1)C(=O)O)c1ccc(-c2ccc(Cl)cc2)cc1 (centres unmarked) [XXIX] |  | 81.4 |  | Ki ([1]; read-out: MMP-3 Ki, P218 6 μM, pH 6.5, 25 min, 37° C.): 465 nM; Ki ([3]; read-out: MMP-9 Ki, P218 6 μM, pH 6.5, 25 min, 37° C.): 449 nM
12 | O=C(CC(CCc1cccc(C(=O)NCCN2CCOCC2)c1)C(=O)O)c1ccc(-c2ccc(Cl)cc2)cc1 (stereo not drawn) [XXVII, 4'-chloro-α-[2-[3-[[[2-(-morpholinyl)ethyl]amino]carbonyl]phenyl]ethyl]-γ-oxo-[1,1'-biphenyl]-4-butanoic acid] | 353 |  | 786 | Ki [2]: 48 nM
13 | CNC(=O)[C@H](Cc1ccccc1)NC(=O)[C@H](CC(C)C)[C@H](CSc1cccs1)C(=O)NO [batimastat] |  |  |  | survival of mice bearing human ovarian carcinoma xenografts [5]: prolongs the survival; human colon tumor growth and spread [6]: inhibits human colon tumor growth and spread
